Counter-ions that a name gives are not always drawn. Like-named read-outs stand apart in the source and are kept apart here.
How the values were obtained:
Type in all cases: in vivo
Laodelphax striatellus = test: Insecticidal test on Laodelphax striatellus (rice seedling dip); conditions: 192 h, read-out: insecticidal efficacy (corrected mortality rate), activity level
Text: Insecticidal Test on Laodelphax striatellus
The condensed heterocyclic compounds represented by the general formula (1) of the present invention or salts thereof were separately dispersed in water and diluted to 500 ppm. Rice plant seedlings (variety: Nihonbare) were dipped in the agrochemical dispersions for 30 seconds. After air-dried, each seedling was put into a separate glass test tube and inoculated with ten 3rd-instar larvae of Laodelphax striatellus, and then the glass test tubes were capped with cotton plugs. At 8 days after the inoculation, the numbers of surviving larvae and dead larvae were counted, the corrected mortality rate was calculated according to the formula shown below, and the insecticidal efficacy was evaluated according to the criteria shown below. Corrected mortality rate (%)=100×(Survival rate in a non-treatment plot−Survival rate in a treatment plot)/Survival rate in a non-treatment plot [Math. 2] Corrected Mortality Rate A: the corrected mortality rate is 100%.

Plutella xylostella = test: Insecticidal test on Plutella xylostella (dip of Chinese cabbage seedlings with laid eggs); conditions: 144 h
Procedure: Insecticidal Test on Plutella xylostella
Adults of Plutella xylostella were released onto Chinese cabbage seedlings and allowed to lay eggs thereon. […] After air-dried, the seedlings were kept in a thermostatic chamber at 25° C. […] This test was conducted in triplicate using 10 adults of Plutella xylostella per plot. Corrected mortality rate (%)=100×(Number of hatched larvae in a non-treatment plot−Number of hatched larvae in a treatment plot)/Number of hatched larvae in a non-treatment plot [Math. 3]

Myzus persicae = test: Test for control efficacy on Myzus persicae (foliar application, Chinese cabbage); conditions: 144 h, foliar application to potted Chinese cabbage plants, 6 days after application, read-out: control efficacy (control rate), activity level
Text: Test for control efficacy on Myzus persicae Chinese cabbage plants were planted in plastic pots (diameter: 8 cm, height: 8 cm), Green peach aphids (Myzus persicae) were propagated on the plants, and the number of surviving Green peach aphids in each pot was counted. The condensed heterocyclic compounds represented by the general formula (1) of the present invention or salts thereof were separately dispersed in water and diluted to 500 ppm. The agrochemical dispersions were applied to the foliage of the potted Chinese cabbage plants. After the plants were air-dried, the pots were kept in a greenhouse. At 6 days after the foliar application, the number of surviving Green peach aphids on the Chinese cabbage plant in each pot was counted, the control rate was calculated according to the formula shown below, and the control efficacy was evaluated according to the criteria shown below. Control rate=100−{(T×Ca)/(Ta×C)}×100 [Math. 1] Ta: the number of survivors before the foliar application in a treatment plot T: the number of survivors after the foliar application in a treatment plot Ca: the number of survivors before the foliar application in a non-treatment plot C: the number of survivors after the foliar application in a non-treatment plot Criteria A: the control rate is 100%. B: the control rate is 90 to 99%. C: the control rate is 80 to 89%. D: the control rate is 50 to 79%.

[1] = 500 ppm, rice seedlings dipped 30 seconds, ten 3rd-instar larvae, 8 days after inoculation
[2] = 500 ppm, seedlings with laid eggs dipped about 30 seconds, 25° C., 6 days after dip treatment, criteria of Test Example 2, read-out: insecticidal efficacy (corrected mortality rate), activity level
[3] = read-out: insecticidal efficacy (corrected mortality rate), activity level

CCSc1cc2cc(Cl)ccc2nc1-c1cc2ncc(C(F)(F)F)cc2n1C(=O)OC(C)(C)C [Compound 2-41, 1-(tert-butoxycarbonyl)-2-(6-chloro-3-ethylthio-quinolin-2-yl)-6-trifluoromethyl-1H-pyrrolo[3,2-b]pyridine]
100%: mortality at 500 ppm (Laodelphax striatellus; [1]) | mortality at 500 ppm (Plutella xylostella; [2]) | pest or weed control at 500 ppm (Myzus persicae)

CCS(=O)(=O)c1cc2ccc(C=O)cc2nc1-c1c(Cl)c2ncc(C(F)(F)F)cc2n1C(=O)OC(C)(C)C [Compound 2-97, 1-(tert-butoxycarbonyl)-2-(7-formyl-3-ethylsulfonyl-quinolin-2-yl)-3-chloro-6-trifluoromethyl-1H-pyrrolo[3,2-b]pyridine]
100%: mortality at 500 ppm (Laodelphax striatellus; [1]) | mortality at 500 ppm (Plutella xylostella; [2]) | pest or weed control at 500 ppm (Myzus persicae)

CCS(=O)(=O)c1cc2cc(Cl)ccc2nc1-c1cc2ncc(C(F)(F)F)cc2n1C(=O)OC(C)(C)C [Compound 2-42, 1-(tert-butoxycarbonyl)-2-(6-chloro-3-ethylsulfonyl-quinolin-2-yl)-6-trifluoromethyl-1H-pyrrolo[3,2-b]pyridine]
100%: mortality at 500 ppm (Laodelphax striatellus; [1]) | mortality at 500 ppm (Plutella xylostella; [2]) | pest or weed control at 500 ppm (Myzus persicae)

C=Cc1ccc2cc(S(=O)(=O)CC)c(-c3c(Cl)c4ncc(C(F)(F)F)cc4n3C(=O)OC(C)(C)C)nc2c1 [Compound 2-98, 1-(tert-butoxycarbonyl)-2-(7-vinyl-3-ethylsulfonyl-quinolin-2-yl)-3-chloro-6-trifluoromethyl-1H-pyrrolo[3,2-b]pyridine]
100%: mortality at 500 ppm (Laodelphax striatellus; [1]) | mortality at 500 ppm (Plutella xylostella; [2]) | pest or weed control at 500 ppm (Myzus persicae)

CCOC(=O)Nc1ccc2cc(S(=O)(=O)CC)c(-c3[nH]c4cc(C(F)(F)F)cnc4c3F)nc2c1 [Compound 1-13, 2-(7-ethoxycarbonylamino-3-ethylsulfonyl-quinolin-2-yl)-3-fluoro-6-trifluoromethyl-1H-pyrrolo[3,2-b]pyridine]
100%: mortality at 500 ppm (Laodelphax striatellus) | mortality at 500 ppm (Plutella xylostella; [3]) | pest or weed control at 500 ppm (Myzus persicae)

CCS(=O)(=O)c1cc2ccc(Br)cc2nc1-c1c(Cl)c2ncc(C(F)(F)F)cc2n1C(=O)OC(C)(C)C [Compound 2-61, 1-(tert-butoxycarbonyl)-2-(7-bromo-3-ethylsulfonyl-quinolin-2-yl)-3-chloro-6-trifluoromethyl-1H-pyrrolo[3,2-b]pyridine]
100%: mortality at 500 ppm (Laodelphax striatellus; [1]) | mortality at 500 ppm (Plutella xylostella; [2]) | pest or weed control at 500 ppm (Myzus persicae)

CCS(=O)(=O)c1cc2cc(Cl)ccc2nc1-c1[nH]c2cc(C(F)(F)F)cnc2c1Cl [Compound 1-44, 3-chloro-2-(6-chloro-3-ethylsulfonyl-quinolin-2-yl)-6-trifluoromethyl-1H-pyrrolo[3,2-b]pyridine]
100%: mortality at 500 ppm (Laodelphax striatellus; [1]) | mortality at 500 ppm (Plutella xylostella; [2]) | pest or weed control at 500 ppm (Myzus persicae)

CCOC(=O)Nc1ccc2cc(S(=O)(=O)CC)c(-c3c(F)c4ncc(C(F)(F)F)cc4n3C(=O)OC(C)(C)C)nc2c1 [Compound 2-49, 1-(tert-butoxycarbonyl)-2-(7-ethoxycarbonylamino-3-ethylsulfonyl-quinolin-2-yl)-3-fluoro-6-trifluoromethyl-1H-pyrrolo[3,2-b]pyridine]
100%: mortality at 500 ppm (Laodelphax striatellus) | mortality at 500 ppm (Plutella xylostella; [3]) | pest or weed control at 500 ppm (Myzus persicae)

CCS(=O)(=O)c1cc2cc(Cl)ccc2nc1-c1cc2ncc(C(F)(F)F)cc2[nH]1 [Compound 4-3, 2-(6-chloro-3-ethylsulfonyl-quinolin-2-yl)-6-trifluoromethyl-1H-pyrrolo[3,2-b]pyridine trifluoroacetate]
100%: mortality at 500 ppm (Laodelphax striatellus; [1]) | mortality at 500 ppm (Plutella xylostella; [2]) | pest or weed control at 500 ppm (Myzus persicae)

CCS(=O)(=O)c1cc2ccc(Br)cc2nc1-c1c(Cl)c2ncc(C(F)(F)F)cc2n1COC [Compound 2-65, 1-methoxymethyl-2-(7-bromo-3-ethylsulfonyl-quinolin-2-yl)-3-chloro-6-trifluoromethyl-1H-pyrrolo[3,2-b]pyridine]
100%: mortality at 500 ppm (Laodelphax striatellus; [1]) | mortality at 500 ppm (Plutella xylostella; [2]) | pest or weed control at 500 ppm (Myzus persicae)

CCS(=O)(=O)c1cc2cc(Cl)ccc2nc1-c1c(F)c2ncc(C(F)(F)F)cc2n1C(C)=O [Compound 2-1, 1-acetyl-2-(6-chloro-3-ethylsulfonyl-quinolin-2-yl)-3-fluoro-6-trifluoromethyl-1H-pyrrolo[3,2-b]pyridine]
100%: mortality at 500 ppm (Laodelphax striatellus; [1]) | mortality at 500 ppm (Plutella xylostella; [2]) | pest or weed control at 500 ppm (Myzus persicae)

CCS(=O)(=O)c1cc2cc(Cl)ccc2nc1-c1[nH]c2cc(C(F)(F)F)cnc2c1F [Compound 1-3, 2-(6-chloro-3-ethylsulfonyl-quinolin-2-yl)-3-fluoro-6-trifluoromethyl-1H-pyrrolo[3,2-b]pyridine]
100%: mortality at 500 ppm (Laodelphax striatellus; [1]) | mortality at 500 ppm (Plutella xylostella; [2]) | pest or weed control at 500 ppm (Myzus persicae)
